The text below walks through data of paper doi:10.1101/2025.11.04.686469, “Discovery of Host-Directed Small Molecules with Broad Anti-Leishmanial Efficacy” (bioRxiv, 2025).

The subject of the experiment is intracellular L. donovani amastigotes. Put plainly: Image-based (Giemsa staining) evaluation of intracellular anti-leishmanial activity in bone marrow derived macrophages. As to conditions: Leishmania donovani, Macrophage. The experiment is classed as cell-based, Leishmania donovani. The method, then:
Bone marrow derived macrophages (BMDMs) were isolated from BALB/c mice and cultured as previously described. […] Completely differentiated BMDMs are obtained after 7 days of culture with media change every 2 days. Harvested cells were seeded onto 10 mm glass cover slips at 5 x 10^5 cells/ well of a 24 well plate in DMEM media (without LCM) and allowed to adhere overnight. […] After infection, cells were washed three times with fresh media to remove extracellular promastigotes and treated with compounds for a 72-hour incubation. BMDM cells were then washed with phosphate buffered saline, fixed with ice-cold methanol, and stained with Giemsa (5% v/v in water). The cover slips with stained cells are mounted onto glass slides and imaged on EVOS XL (100X, Thermo Fisher Scientific). Leishmania amastigotes per 100 macrophages were determined in a blinded manner.

Like-named read-outs stand apart in the source and are kept apart here. A value given as a limit tells only on which side of the number the result lay.

As for `O=C(CNCc1cccc(F)c1)Nc1ccc(-n2cc(C(F)(F)F)nc2-c2ccc(-c3ccc(C(F)(F)F)cc3)cc2)cc1` [Compound 197], the IC50 (as a rule, the point on the concentration scale where inhibition reaches its midpoint) runs as follows: (72 h, Giemsa staining, 72-hour incubation, read-out: Intracellular L. donovani amastigotes IC50) 1.1 µM; (Giemsa staining (Table 3), read-out: L. donovani Intracellular amastigotes IC50) less than 2 µM.
